Starred links: 1 amine or outer side, 2 acyl side, 3 side chain; linkers in the order of their positions; H or OH if unused. Positions of bridges follow the written chain, without caps; N, C: chain ends. Residues, ends and D or L forms follow the SMILES beside them. Suc = O=C(CCC(=O)[*:2])[*:1]
Key:
[1] = system: H5/Viet HA (A/Vietnam/1203/2004 (H5N1)); type: binding, influenza A virus
[2] = system: H1/NCa HA (A/New Caledonia/20/1999 (H1N1)); type: binding, influenza A virus
[3] = system: H1/Cal HA (A/California/07/2009 (H1N1)); type: binding, influenza A virus
[4] = system: H1N1 A/Brisbane/59/2007 (H1/Bri) HA; type: biochemical, influenza A virus; details: pH 5.25
[5] = system: group 1 H1/Cal, H1/NCa, and H5/Viet HAs; type: binding, influenza A virus; details: read-out: IC50 in AlphaLISA (range over HAs)
[6] = biological target: group 1 H1/Cal, H1/NCa, and H5/Viet HAs; type: binding, influenza A virus; details: for Kd: read-out: KD by SPR (range over HAs)
[7] = In vitro cell permeability assay; details: for Papp B→A at 120 min, 5 µM: LLC-Parent, basolateral to apical
[8] = system: P-gp (MDR1); assay: In vitro cell permeability / P-gp substrate assay; details: pig; for Papp A→B at 120 min, 5 µM: LLC-MDR1, apical to basolateral; for Papp B→A at 120 min, 5 µM: LLC-MDR1, basolateral to apical
[9] = system: H5/Viet virus (A/Vietnam/1203/2004 (H5N1))
[10] = system: HAs from group 2 and influenza B viruses; type: binding, influenza A and B viruses

## CSCC[C@@H]1NC(=O)CNC(=O)CNC(=O)[C@H](C)NC(=O)[C@H](C(C)C)NC(=O)CNC(=O)[C@H](CC(C)C)NC(=O)[C@@H]2CCCN2C(=O)[C@H](CC(=O)O)NC(=O)[C@H](CCC(=O)O)NC(=O)[C@H](Cc2ccc(O)cc2)NC(=O)[C@@H](NC(=O)CCC(=O)O)CSSC[C@@H](C(N)=O)NC1=O [CP12]
[1]
  IC50: 28800 ± 10200 nM
[2]
  IC50: 4950 ± 380 nM
[3]
  IC50: 6380 ± 170 nM

## CSCC[C@@H]1NC(=O)CNC(=O)CNC(=O)[C@H](C)NC(=O)[C@H](C(C)C)NC(=O)CNC(=O)[C@H](CC(C)C)NC(=O)[C@@H]2CCCN2C(=O)[C@H](CC(=O)O)NC(=O)[C@H](CCC(=O)O)NC(=O)[C@H](Cc2ccc(O)cc2)NC(=O)[C@H](CC(C)C)NC(=O)[C@@H](NC(=O)CCC(=O)O)CSSC[C@@H](C(N)=O)NC(=O)CNC1=O [CP9]
[4]
  IC50: 230 ± 20 nM
[1]
  IC50: 5590 ± 210 nM
[2]
  IC50: 700 ± 20 nM
[3]
  IC50: 300 ± 30 nM

## CSCC[C@@H]1NC(=O)CNC(=O)CNC(=O)[C@H](C)NC(=O)[C@H](C(C)C)NC(=O)CNC(=O)[C@H](CC(C)C)NC(=O)[C@@H]2CCCN2C(=O)[C@H](CC(=O)O)NC(=O)[C@H](CCCNC(=N)N)NC(=O)[C@H](Cc2ccc(O)cc2)NC(=O)[C@H](CC(C)C)NC(=O)[C@@H](NC(=O)CCC(=O)O)CSSC[C@@H](C(N)=O)NC(=O)CNC1=O [CP8]
[4]
  IC50: 540 ± 10 nM
[1]
  IC50: 1550 ± 290 nM
[5]
  IC50: 110 to 1550 nM
[2]
  IC50: 160 ± 20 nM
[6]
  Kd: 320 to 330 nM
[3]
  IC50: 110 nM

## CSCC[C@@H]1NC(=O)CNC(=O)CNC(=O)[C@H](C)NC(=O)[C@H](C(C)C)NC(=O)CNC(=O)[C@H](CC(C)C)NC(=O)[C@@H]2CCCN2C(=O)[C@H](CC(=O)O)NC(=O)[C@H](CCC(=O)O)NC(=O)[C@H](Cc2ccc(O)cc2)NC(=O)[C@H](CC(C)C)NC(=O)CNC1=O [CP14]
[4]
  IC50: 1240 ± 30 nM
[1]
  IC50: 10000 ± 910 nM
[7]; LLC-PK1
  recovery: 96.5%
[7]; pig, LLC-PK1, pH 7.4
  Papp A→B at 120 min, 5 µM: 0.11 ×10⁻⁶ cm/s
[7]; pig, LLC-PK1, pH 7.4, Papp BA, no inhibitor
  Papp B→A at 120 min, 5 µM: 0.12 ± 0.01 ×10⁻⁶ cm/s
[7]; pig, LLC-PK1, pH 7.4, with 5 µM GF120918 (elacridar), Papp BA, + 5 µM GF120918
  Papp B→A at 120 min, 5 µM: 0.11 ± 0.01 ×10⁻⁶ cm/s
[2]
  IC50: 1240 ± 150 nM
[3]
  IC50: 1720 ± 240 nM
[8]; LLC-PK1, pH 7.4, Papp AB, no inhibitor
  Papp A→B at 120 min, 5 µM: 0.26 ± 0.04 ×10⁻⁶ cm/s
[8]; LLC-PK1, pH 7.4, Papp BA, no inhibitor
  Papp B→A at 120 min, 5 µM: 0.32 ± 0.05 ×10⁻⁶ cm/s
[8]; LLC-PK1, pH 7.4, with 5 µM GF120918 (elacridar), Papp AB, + 5 µM GF120918
  Papp A→B at 120 min, 5 µM: 0.25 ± 0.01 ×10⁻⁶ cm/s
[8]; LLC-PK1, pH 7.4, with 5 µM GF120918 (elacridar), Papp BA, + 5 µM GF120918
  Papp B→A at 120 min, 5 µM: 0.33 ± 0.05 ×10⁻⁶ cm/s

## CSCC[C@@H]1NC(=O)CNC(=O)CNC(=O)[C@H](C)NC(=O)[C@H](C(C)C)NC(=O)CNC(=O)[C@H](CC(C)C)NC(=O)[C@@H]2CCCN2C(=O)[C@H](CC(=O)O)NC(=O)[C@H](CCC(=O)O)NC(=O)[C@H](Cc2ccc(O)cc2)NC(=O)[C@H](CC(C)C)NC(=O)[C@H](CO)NC(=O)[C@H](C(C)C)NC(=O)[C@H]2CCCN2C(=O)CNC(=O)[C@H](Cc2ccc(O)cc2)NC(=O)[C@H](C(C)C)NC(=O)CNC1=O [CP4]
[4]
  IC50: 390 ± 40 nM
[1]
  IC50: 760 ± 86 nM
[9]
  Neutralization activity against H5N1 virus (in words): complete abolishment of neutralization activity
[2]
  IC50: 75 ± 10 nM
[6]
  half-life / residence time t1/2 (range over HAs): 2 to 16 s
  koff (range over HAs): 0.04–0.32
[3]
  IC50: 100 nM

## CSCC[C@H](NC(=O)CNC(=O)CNC(=O)[C@H](C)NC(=O)[C@@H](NC(=O)CNC(=O)[C@H](CC(C)C)NC(=O)[C@@H]1CCCN1C(=O)[C@H](CC(=O)O)NC(=O)[C@H](CCCNC(=N)N)NC(=O)[C@H](Cc1ccc(O)cc1)NC(=O)[C@H](CC(C)C)NC(=O)[C@H](CO)NC(=O)[C@@H](NC(=O)CCC(=O)O)C(C)C)C(C)C)C(=O)NCC(=O)N[C@H](C(=O)N[C@@H](Cc1ccc(O)cc1)C(N)=O)C(C)C [LP1]
[10]
  Binding to HAs of group 2 and influenza B viruses: no binding was observed
[1]
  IC50: 47900 ± 3770 nM
[5]
  IC50: 11000 to 47000 nM
[2]
  IC50: 22900 ± 4140 nM
[6]
  Kd: 3000 to 7000 nM
[3]
  IC50: 11500 ± 2500 nM

## CSCC[C@@H]1NC(=O)[C@H](CCC(=O)O)NC(=O)CNC(=O)[C@H](C)NC(=O)[C@H](C(C)C)NC(=O)CNC(=O)[C@H](CC(C)C)NC(=O)[C@@H]2CCCN2C(=O)[C@H](CC(=O)O)NC(=O)[C@H](CCCNC(=N)N)NC(=O)[C@H](Cc2ccc(O)cc2)NC(=O)[C@H](CC(C)C)NC(=O)[C@@H](NC(=O)CCC(=O)O)CSSC[C@@H](C(N)=O)NC(=O)CNC1=O [CP10] (Suc-CLYRDPLGVAGEMGC-NH2; disulfide 1-15)
[4]
  IC50: 460 ± 40 nM
[1]
  IC50: 7610 ± 1560 nM
[2]
  IC50: 2930 ± 320 nM
[3]
  IC50: 610 ± 80 nM

From article PMC12714728, “VHH antibody loop guides design of a synthetic macrocyclic peptide that potently blocks influenza virus membrane fusion” (npj Viruses, 2025)
